Measured values taken from BindingDB's records for patent US20250387388 (Medinno Pharmaceutical Technology (Zhuhai) Co., 2025).

Key:
[1] = molecular target: BDNF/NT-3 growth factors receptor (Homo sapiens, UniProt Q16620); experiment: Inhibitory Activity of Compounds on TRKA, TRKB and TRKC
[2] = molecular target: High affinity nerve growth factor receptor (Homo sapiens, UniProt P04629); experiment: as above
[3] = molecular target: NT-3 growth factor receptor (Homo sapiens, UniProt Q16288); experiment: as above
[4] = molecular target: Proto-oncogene tyrosine-protein kinase receptor Ret (Homo sapiens, UniProt P07949); experiment: Inhibitory Activity of Compounds on RET Kinase
Chain of Proto-oncogene tyrosine-protein kinase receptor Ret (P07949 whole entry): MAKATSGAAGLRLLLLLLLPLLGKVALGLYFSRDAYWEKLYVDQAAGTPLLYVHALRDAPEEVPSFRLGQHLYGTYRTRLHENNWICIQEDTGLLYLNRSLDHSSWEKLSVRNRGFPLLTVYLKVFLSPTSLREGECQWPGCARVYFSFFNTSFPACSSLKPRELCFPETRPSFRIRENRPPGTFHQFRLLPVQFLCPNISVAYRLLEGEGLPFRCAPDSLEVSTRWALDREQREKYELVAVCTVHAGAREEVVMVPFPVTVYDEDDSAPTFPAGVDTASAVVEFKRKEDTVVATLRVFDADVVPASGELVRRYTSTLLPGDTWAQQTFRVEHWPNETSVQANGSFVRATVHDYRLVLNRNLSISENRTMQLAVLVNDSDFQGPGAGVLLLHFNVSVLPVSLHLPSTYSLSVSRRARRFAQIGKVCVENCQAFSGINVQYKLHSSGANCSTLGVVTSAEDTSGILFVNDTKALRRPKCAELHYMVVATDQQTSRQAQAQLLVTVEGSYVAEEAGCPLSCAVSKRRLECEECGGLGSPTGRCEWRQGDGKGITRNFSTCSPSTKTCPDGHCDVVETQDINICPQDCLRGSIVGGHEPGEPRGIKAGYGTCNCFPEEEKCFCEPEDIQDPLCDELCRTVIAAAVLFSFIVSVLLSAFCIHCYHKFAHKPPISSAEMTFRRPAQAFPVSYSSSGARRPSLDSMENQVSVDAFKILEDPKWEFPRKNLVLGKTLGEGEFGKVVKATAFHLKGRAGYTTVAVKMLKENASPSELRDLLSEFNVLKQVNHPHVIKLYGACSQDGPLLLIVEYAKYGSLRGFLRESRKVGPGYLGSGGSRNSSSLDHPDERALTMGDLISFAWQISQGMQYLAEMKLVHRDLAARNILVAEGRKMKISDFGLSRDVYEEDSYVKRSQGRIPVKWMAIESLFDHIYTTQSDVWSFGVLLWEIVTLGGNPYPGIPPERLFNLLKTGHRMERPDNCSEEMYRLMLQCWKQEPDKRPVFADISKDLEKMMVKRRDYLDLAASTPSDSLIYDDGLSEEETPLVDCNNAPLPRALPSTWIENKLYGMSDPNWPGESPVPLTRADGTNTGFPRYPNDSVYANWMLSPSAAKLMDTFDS

Chain of NT-3 growth factor receptor (Q16288 whole entry): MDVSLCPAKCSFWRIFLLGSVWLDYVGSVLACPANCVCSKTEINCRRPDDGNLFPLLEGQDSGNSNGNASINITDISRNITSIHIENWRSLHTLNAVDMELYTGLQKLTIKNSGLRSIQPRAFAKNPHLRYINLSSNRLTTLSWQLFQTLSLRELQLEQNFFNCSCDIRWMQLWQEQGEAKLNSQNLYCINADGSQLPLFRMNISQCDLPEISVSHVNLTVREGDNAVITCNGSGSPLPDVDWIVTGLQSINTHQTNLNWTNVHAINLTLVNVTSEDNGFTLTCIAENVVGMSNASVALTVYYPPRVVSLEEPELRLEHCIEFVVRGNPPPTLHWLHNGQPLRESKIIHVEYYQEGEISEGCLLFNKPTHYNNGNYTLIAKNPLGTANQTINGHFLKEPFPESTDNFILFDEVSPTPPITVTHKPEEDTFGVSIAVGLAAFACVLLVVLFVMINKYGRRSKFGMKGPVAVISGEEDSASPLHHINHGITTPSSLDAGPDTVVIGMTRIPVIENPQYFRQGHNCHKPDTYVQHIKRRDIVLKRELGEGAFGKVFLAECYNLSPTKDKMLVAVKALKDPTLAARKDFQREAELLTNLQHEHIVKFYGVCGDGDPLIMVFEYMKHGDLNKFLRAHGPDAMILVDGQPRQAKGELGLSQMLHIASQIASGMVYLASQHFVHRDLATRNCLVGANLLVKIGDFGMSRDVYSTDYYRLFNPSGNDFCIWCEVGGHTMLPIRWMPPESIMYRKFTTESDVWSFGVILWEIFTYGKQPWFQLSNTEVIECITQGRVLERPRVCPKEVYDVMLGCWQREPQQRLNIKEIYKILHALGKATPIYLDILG
Chain of BDNF/NT-3 growth factors receptor (Q16620 whole entry): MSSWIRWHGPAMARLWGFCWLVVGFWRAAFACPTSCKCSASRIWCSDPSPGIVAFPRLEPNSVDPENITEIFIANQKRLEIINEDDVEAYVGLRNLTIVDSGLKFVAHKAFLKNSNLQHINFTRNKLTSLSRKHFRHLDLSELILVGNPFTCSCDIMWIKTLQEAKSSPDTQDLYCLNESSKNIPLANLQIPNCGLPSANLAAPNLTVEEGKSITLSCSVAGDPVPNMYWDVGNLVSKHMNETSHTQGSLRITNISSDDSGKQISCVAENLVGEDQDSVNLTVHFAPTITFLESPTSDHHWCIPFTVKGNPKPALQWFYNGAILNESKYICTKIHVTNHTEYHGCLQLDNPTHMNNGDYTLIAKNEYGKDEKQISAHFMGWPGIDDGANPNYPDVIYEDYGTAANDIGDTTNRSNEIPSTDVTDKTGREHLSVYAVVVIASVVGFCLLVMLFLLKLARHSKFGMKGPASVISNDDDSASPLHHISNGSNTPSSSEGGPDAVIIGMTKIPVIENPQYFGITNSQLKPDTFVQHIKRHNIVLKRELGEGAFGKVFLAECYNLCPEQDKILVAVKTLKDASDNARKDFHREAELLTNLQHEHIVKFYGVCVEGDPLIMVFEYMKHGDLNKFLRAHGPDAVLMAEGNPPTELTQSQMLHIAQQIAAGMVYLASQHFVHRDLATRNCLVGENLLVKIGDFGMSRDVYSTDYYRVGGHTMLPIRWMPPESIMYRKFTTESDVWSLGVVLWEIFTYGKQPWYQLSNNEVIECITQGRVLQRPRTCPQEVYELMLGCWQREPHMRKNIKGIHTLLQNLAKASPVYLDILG
Chain of High affinity nerve growth factor receptor (P04629 whole entry): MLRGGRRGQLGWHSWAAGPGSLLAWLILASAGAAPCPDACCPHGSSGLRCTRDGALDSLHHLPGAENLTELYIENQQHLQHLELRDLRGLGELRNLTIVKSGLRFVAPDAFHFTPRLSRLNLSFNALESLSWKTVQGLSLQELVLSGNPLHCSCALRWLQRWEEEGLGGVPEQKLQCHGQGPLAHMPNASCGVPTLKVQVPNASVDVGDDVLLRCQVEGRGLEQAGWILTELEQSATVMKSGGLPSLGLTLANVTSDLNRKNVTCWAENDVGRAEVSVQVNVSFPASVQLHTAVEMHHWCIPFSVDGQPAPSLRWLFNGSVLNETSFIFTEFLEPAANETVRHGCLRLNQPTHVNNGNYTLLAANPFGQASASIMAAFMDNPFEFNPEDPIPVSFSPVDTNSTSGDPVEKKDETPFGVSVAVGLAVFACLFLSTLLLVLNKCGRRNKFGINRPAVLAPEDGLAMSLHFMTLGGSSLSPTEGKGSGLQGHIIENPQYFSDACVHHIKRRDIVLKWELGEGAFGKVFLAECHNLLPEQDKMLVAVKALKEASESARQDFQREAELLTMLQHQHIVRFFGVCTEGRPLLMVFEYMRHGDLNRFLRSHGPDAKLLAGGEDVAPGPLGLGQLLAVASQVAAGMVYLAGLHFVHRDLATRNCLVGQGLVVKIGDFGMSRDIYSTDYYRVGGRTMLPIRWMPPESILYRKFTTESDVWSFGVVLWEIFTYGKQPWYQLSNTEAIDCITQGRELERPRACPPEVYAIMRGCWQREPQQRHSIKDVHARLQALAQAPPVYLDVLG

Row | SMILES | IC50 [1] | IC50 [2] | IC50 [3] | IC50 [4]
1 | CCc1cc(O)c(F)cc1-c1ccc2c(-c3nc4c([nH]3)CN(c3nc(N5CCOCC5)cnc3C(=O)c3ncc(N5CCOCC5)nc3N3Cc5nc(-c6n[nH]c7cc(-c8cc(F)c(O)cc8CC)ccc67)[nH]c5C3)C4)n[nH]c2c1 [US20250387388, Compound MDI-201] | 6.14 nM | 5.76 nM | 2.2 nM | –
2 | CCc1cc(O)c(F)cc1-c1ccc2c(-c3nc4c([nH]3)CN(C3CCCN3C(=O)N3CCCC3N3Cc5nc(-c6n[nH]c7cc(-c8cc(F)c(O)cc8CC)ccc67)[nH]c5C3)C4)n[nH]c2c1 (stereo not drawn) [US20250387388, Compound MDI-231] | 5.86 nM | 2.82 nM | 1.49 nM | –
3 | CCc1cc(O)c(F)cc1-c1ccc2c(-c3nc4c([nH]3)CN(C3CCCCN3C(=O)N3CCCCC3N3Cc5nc(-c6n[nH]c7cc(-c8cc(F)c(O)cc8CC)ccc67)[nH]c5C3)C4)n[nH]c2c1 (stereo not drawn) [US20250387388, Compound MDI-233] | 30.4 nM | 9.01 nM | 6.32 nM | –
4 | CCc1cc(O)c(F)cc1-c1ccc2c(-c3nc4c([nH]3)CN(C3CN(C(=O)N5CCOC(N6Cc7nc(-c8n[nH]c9cc(-c%10cc(F)c(O)cc%10CC)ccc89)[nH]c7C6)C5)CCO3)C4)n[nH]c2c1 (stereo not drawn) [US20250387388, Compound MDI-234] | 1.27 nM | 1.07 nM | 0.65 nM | –
5 | CCc1cc(O)c(F)cc1-c1ccc2c(-c3nc4c([nH]3)CN(C3CN(C)CCN3C(=O)N3CCN(C)CC3N3Cc5nc(-c6n[nH]c7cc(-c8cc(F)c(O)cc8CC)ccc67)[nH]c5C3)C4)n[nH]c2c1 (stereo not drawn) [US20250387388, Compound MDI-235] | 1.39 nM | 0.57 nM | 0.27 nM | 0.1 nM
6 | CCc1cc(O)c(F)cc1-c1ccc2c(-c3nc4c([nH]3)CN(C3CN(CC)CCN3C(=O)N3CCN(CC)CC3N3Cc5nc(-c6n[nH]c7cc(-c8cc(F)c(O)cc8CC)ccc67)[nH]c5C3)C4)n[nH]c2c1 (stereo not drawn) [US20250387388, Compound MDI-236] | 1.06 nM | 0.23 nM | 0.2 nM | –
7 | CCc1cc(O)c(F)cc1-c1ccc2c(-c3nc4c([nH]3)CN(C3CC(O)CCN3C(=O)N3CCC(O)CC3N3Cc5nc(-c6n[nH]c7cc(-c8cc(F)c(O)cc8CC)ccc67)[nH]c5C3)C4)n[nH]c2c1 (stereo not drawn) [US20250387388, Compound MDI-245] | 3.37 nM | 0.83 nM | 0.57 nM | 0.99 nM
